Measurements reported in BindingDB's records for patent US11845767 (Rijksuniversiteit Groningen, 2023).

Tests used:
Arginase-1 = target: T1, Arginase-1 (Homo sapiens, UniProt P05089); test: Inhibition of Arginase
T1 sequence (P05089 whole entry): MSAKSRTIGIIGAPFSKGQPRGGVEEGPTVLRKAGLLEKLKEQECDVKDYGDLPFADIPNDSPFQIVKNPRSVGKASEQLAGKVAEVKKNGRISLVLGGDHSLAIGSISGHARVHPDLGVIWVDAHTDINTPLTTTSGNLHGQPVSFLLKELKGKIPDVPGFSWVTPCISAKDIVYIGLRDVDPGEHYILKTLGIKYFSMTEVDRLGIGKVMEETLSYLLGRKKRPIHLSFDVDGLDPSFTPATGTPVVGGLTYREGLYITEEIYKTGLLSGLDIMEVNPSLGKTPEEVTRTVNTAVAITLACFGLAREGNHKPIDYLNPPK
Description: (§1) Inhibition of arginase I (ARG I) and arginase II (ARGG II) novel compounds is followed spectrophotometrically at 530 nm. The compound to be tested is dissolved in H2O and prepared 100 mM stock solution. 10 μl of the stock solution is diluted in 90 μl of the assay buffer that comprises 0.1M sodium phosphate buffer containing 130 mM NaCl, pH 7.4, to which is added ovalbumin (OVA) at a concentration of 1 mg/mi. Solutions of arginase I and II are prepared in 100 mM sodium phosphate buffer, pH 7.4 containing 1 mg/ml OVA to give an arginase stock solution at a final concentration of 100 ng/ml. To each well of a 96-well microtiter plate is add 40 μl of enzyme, 10 μl of an inventive compound and 10 μl of enzyme substrate (L-arginine+manganese sulfate). For wells that are used as positive controls, only the enzyme and its substrate are added, while wells used as negative controls contain only manganese sulfate. After incubating the microtiter plate at 37° C. for 60 minutes, 150 μl of a urea reagent obtained by combining equal proportions (1:1) of reagents A and B is added to each well of the microtiter plate to stop the reaction. The urea reagent is made just before use by combining Reagent A (10 mM o-phthaldialdehyde, and 0.4% polyoxyethylene (23) lauryl ether (w/v) in 1.8 M sulfuric acid) with Reagent B (1.3 mM […], 0.4% polyoxyethylene (23) lauryl ether (w/v), 130 mM boric acid in 3.6 M sulfuric acid). After quenching the reaction mixture, the microtiter plate is allowed to stand for an additional 10 minutes at room temperature to allow color development. T

[1] = target: T2, Arginase-2, mitochondrial (Homo sapiens, UniProt P78540); test: Inhibition of Arginase
T2 sequence (P78540 whole entry): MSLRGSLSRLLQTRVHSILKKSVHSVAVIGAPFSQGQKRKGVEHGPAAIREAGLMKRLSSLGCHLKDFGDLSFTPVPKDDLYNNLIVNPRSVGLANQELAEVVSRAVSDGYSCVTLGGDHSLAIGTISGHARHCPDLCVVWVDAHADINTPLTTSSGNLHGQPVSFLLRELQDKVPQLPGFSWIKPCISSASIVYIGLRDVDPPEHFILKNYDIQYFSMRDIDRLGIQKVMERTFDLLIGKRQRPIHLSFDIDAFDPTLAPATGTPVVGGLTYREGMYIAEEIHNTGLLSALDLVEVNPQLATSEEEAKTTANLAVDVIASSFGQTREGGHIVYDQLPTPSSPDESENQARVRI
Description: as §1

IC50 (Arginase-1) [nM]	IC50 [1] [nM]	SMILES
14	–	CCCCNC(=O)Cn1nnnc1C(N)CCCCB(O)O (stereo not given) [US11845767, Example 271]
340	–	NC(CCCCB(O)O)c1nnnn1CC(=O)N1CCOCC1 (stereo not given) [US11845767, Example 274]
< 101	–	NC(CCCCB(O)O)c1nnnn1CCc1ccc(Br)cc1 (stereo not given) [US11845767, Example 313]
15.5	18.6	NC(CCCCB(O)O)c1nnnn1CC(=O)NCc1ccc(Cl)cc1F (stereo not given) [US11845767, Example 318]
